Measured values reported in patent US8466155B2, “Pyrimidines” (Boehringer Ingelheim International GmbH, priority 2009, dated 2013).

These compounds were tested against T1, PTK2 (Homo sapiens, UniProt Q05397) (assay: PTK2 enzyme test, Assay 1 (DELFIA, PT60 antibody)). Conditions: 1 h pre-incubation, 1 h kinase reaction, values without *.
T1 construct: purchased Invitrogen PV3832
T1 sequence (Q05397 whole entry): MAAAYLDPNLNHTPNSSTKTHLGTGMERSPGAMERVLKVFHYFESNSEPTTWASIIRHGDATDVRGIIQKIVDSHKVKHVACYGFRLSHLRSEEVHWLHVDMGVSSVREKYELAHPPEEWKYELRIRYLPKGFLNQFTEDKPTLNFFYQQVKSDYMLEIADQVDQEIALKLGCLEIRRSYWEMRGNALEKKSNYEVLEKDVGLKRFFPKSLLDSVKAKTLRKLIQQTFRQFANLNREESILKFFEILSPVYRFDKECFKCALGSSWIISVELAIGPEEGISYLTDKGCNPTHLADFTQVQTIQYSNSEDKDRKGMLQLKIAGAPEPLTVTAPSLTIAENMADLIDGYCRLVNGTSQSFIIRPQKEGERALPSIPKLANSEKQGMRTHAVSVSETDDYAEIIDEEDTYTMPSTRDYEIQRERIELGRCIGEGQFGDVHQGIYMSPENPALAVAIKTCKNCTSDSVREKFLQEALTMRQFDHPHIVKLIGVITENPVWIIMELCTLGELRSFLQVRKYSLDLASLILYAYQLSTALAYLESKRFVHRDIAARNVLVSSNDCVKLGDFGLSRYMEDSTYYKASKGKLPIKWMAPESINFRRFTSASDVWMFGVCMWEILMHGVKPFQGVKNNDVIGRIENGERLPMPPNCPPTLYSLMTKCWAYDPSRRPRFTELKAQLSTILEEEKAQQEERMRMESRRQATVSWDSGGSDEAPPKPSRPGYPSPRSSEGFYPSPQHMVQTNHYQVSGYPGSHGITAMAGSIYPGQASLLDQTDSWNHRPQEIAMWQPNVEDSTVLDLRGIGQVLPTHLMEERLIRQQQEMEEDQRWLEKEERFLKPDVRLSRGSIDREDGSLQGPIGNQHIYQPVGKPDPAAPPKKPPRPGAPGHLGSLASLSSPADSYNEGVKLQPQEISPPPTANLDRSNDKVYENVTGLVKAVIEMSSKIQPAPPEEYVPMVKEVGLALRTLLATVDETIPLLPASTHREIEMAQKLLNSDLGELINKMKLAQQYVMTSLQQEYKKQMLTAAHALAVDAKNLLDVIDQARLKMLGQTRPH
Format: biochemical
Procedure: This test uses active PTK2 enzyme (Invitrogen Code PV3832) and poly-Glu-Tyr (4:1, Sigma P-0275) as the kinase substrate. The kinase activity is detected through the phosphorylation of the substrate in a DELFIA™ assay. The phosphorylated substrate is detected with the europium-labelled phosphotyrosine antibody PT60 (Perkin Elmer, No.: AD00400).
In order to determine concentration-activity curves with PTK2-inhibitors the compounds are serially diluted in 10% DMSO/H20 and 10 μL of each dilution are placed in each well of a 96-well microtitre plate (clear plate with a U-shaped base, Greiner No. 650101) (the inhibitors are tested in duplicates) and mixed with 10 μL/well of PTK2 kinase (0.01 μg/well). PTK2 kinase has been correspondingly diluted beforehand with kinase dilution buffer (20 mM TRIS/HCl pH 7.5, 0.1 mM EDTA, 0.1 mM EGTA, 0.286 mM sodium orthovanadate, 10% glycerol with the addition of freshly prepared BSA (fraction V, 1 mg/mL) and DTT (1 mM)). The test compound and the PTK2 kinase are pre-incubated for 1 h at RT and shaken at 500 revolutions per min. The reaction is started by the addition of 10 μL/well poly (Glu,Tyr) substrate (25 μg/well poly (Glu, Tyr), 0.05 μg/well biotinylated poly (Glu,Tyr) dissolved in 250 mM TRIS/HCl pH 7.5, 9 mM DTT)—the final concentration of DMSO is 2%. Then 20 μL of ATP Mix (30 mM TRIS/HCl pH 7.5, 0.02% Brij, 0.2 mM sodium orthovanadate, 10 mM magnesium acetate, 0.1 mM EGTA, 1× phosphatase inhibitor cocktail 1 (Sigma, No.: P2850), 50 μM ATP (Sigma, No.: A3377; 15 mM stock solution)) are added. After 1 h of kinase reaction (the plates are shaken at 500 rpm), the reaction is stopped by the addition of 12 μL/well 100 mM EDTA, pH 8.0 and shaken for a further 5 min at RT (500 rpm). 55 μL of the reaction mixture are transferred into a streptavidin plate (Strepta Well High Bind (transparent, 96-well) made by Roche, No.: 11989685001) and incubated for 1 h at RT (shaking at 500 rpm). Then the microtitre plate is washed three times with 200 μL/well D-PBS (Invitrogen, No. 14190). 100 μL of a solution containing DELFIA Eu-N1 Anti-Phosphotyrosine PT60 antibody (Perkin Elmer, No.: AD0040, diluted 1:2000 in DELFIA test buffer (Perkin Elmer, No.: 1244-111)) is then added and the mixture is incubated for 1 h at RT (shaking at 500 rpm). Then the plate is washed three times with 200 μL/well DELFIA washing buffer (Perkin Elmer, No.: 1244-114), 200 μL/well strengthening solution (Perkin Elmer, No.: 1244-105) are added and the mixture is incubated for 10 min at RT (shaking at 300 rpm).
The time-delayed europium fluorescence is then measured in a microtitre plate reader (VICTOR^3, Perkin Elmer). […] Wells that contain test buffer instead of enzyme are used as a control of the background kinase activity.
The IC50 values are determined from analyses of the concentration activity by iterative calculation with the aid of a sigmoid curve analysis algorithm (FIFTY, based on GraphPAD Prism Version 3.03) with a variable Hill coefficient.
Work on `COc1cc(C(=O)NC2CCN(C)CC2)ccc1Nc1ncc(C(F)(F)F)c(O[C@H]2Cc3ccccc3[C@H]2N(C)S(C)(=O)=O)n1` [Example 70] yielded an IC50 of 238 nM.
With `Cc1nc2ccc(Nc3ncc(C(F)(F)F)c(O[C@@H]4CCC[C@H]4NS(C)(=O)=O)n3)cc2o1` [Example 83] the IC50 was 1 nM.
Compound `COc1cc(C(=O)NC2CCN(C)CC2)c(Cl)cc1Nc1ncc(C(F)(F)F)c(O[C@@H]2CCCC[C@H]2NS(C)(=O)=O)n1` [Example 93] has an IC50 of 0.42 nM.
For `COc1cc(C(=O)NN2CCN(C)CC2)c(F)cc1Nc1ncc(C(F)(F)F)c(O[C@@H]2CCC[C@H]2N(C)S(C)(=O)=O)n1` [Example 101, 2-fluoro-4-{4-[(1R,2R)-2-(methanesulphonyl-methyl-amino)-cyclopentyloxy]-5-trifluoromethyl-pyrimidin-2-ylamino}-5-methoxy-N-(4-methyl-piperazin-1-yl)-benzamide], the IC50 was 0.3 nM.
`COc1cc(C(=O)NCC2CC2)c(F)cc1Nc1ncc(C(F)(F)F)c(O[C@@H]2Cc3ccccc3[C@H]2N(C)S(C)(=O)=O)n1` [Example 9] was tested, and the IC50 was 19 nM.
`COc1cc(C(=O)NCCN(C)C)c(Cl)cc1Nc1ncc(C(F)(F)F)c(O[C@@H]2CCC[C@H]2NS(C)(=O)=O)n1` [Example 78] was tested, and the IC50 was 0.37 nM.
`COc1cc(C(=O)N[C@H]2CC[C@H](O)CC2)ccc1Nc1ncc(C(F)(F)F)c(O[C@@H]2Cc3ccccc3[C@H]2N(C)S(C)(=O)=O)n1` [Example 22] was tested, and the IC50 was 8 nM.
Compound `COc1cc(C(=O)NCCN(C)C)c(F)cc1Nc1ncc(Cl)c(O[C@@H]2Cc3ccccc3[C@H]2N(C)S(C)(=O)=O)n1` [Example 53] has an IC50 of 4 nM.
Compound `COc1cc(C(=O)NC[C@H](O)CO)c(Cl)cc1Nc1ncc(Cl)c(O[C@@H]2Cc3ccccc3[C@H]2N(C)S(C)(=O)=O)n1` [Example 36] has an IC50 of 3 nM.
`CNC(=O)c1ccc(Nc2ncc(C(F)(F)F)c(O[C@@H]3Cc4ccccc4[C@H]3N(C)S(C)(=O)=O)n2)c(OC)c1` [Example 17] gave an IC50 of 13 nM.
`COc1cc(C(=O)NC2CCN(C)CC2)ccc1Nc1ncc(C(F)(F)F)c(O[C@@H]2CCCC[C@H]2N(C)S(C)(=O)=O)n1` [Example 76] gave an IC50 of 0.29 nM.
Work on `COc1cc(C(=O)N[C@H]2CC[C@H](N3CCN(CC4CC4)CC3)CC2)ccc1Nc1ncc(C(F)(F)F)c(O[C@@H]2Cc3ccccc3[C@H]2N(C)S(C)(=O)=O)n1` [Example 18] yielded an IC50 of 4 nM.
For `COc1cc(NC(=O)C2CCN(C)CC2)ccc1Nc1ncc(C(F)(F)F)c(O[C@@H]2Cc3ccccc3[C@H]2N(C)S(C)(=O)=O)n1` [Example 91], the IC50 was 4 nM.
`COc1cc(C(=O)NC2CCN(C)CC2)c(F)cc1Nc1ncc(C(F)(F)F)c(O[C@@H]2CCC[C@H]2NS(=O)(=O)C2CC2)n1` [Example 46] was tested, and the IC50 was 34 nM.
In the case of `COc1cc(C(=O)NCCN(C)C)ccc1Nc1ncc(C(F)(F)F)c(O[C@@H]2Cc3ccccc3[C@H]2N(C)S(C)(=O)=O)n1` [Example 14], the IC50 is reported as 3 nM.
`COc1cc(C(=O)NC2CCN(C)CC2)ccc1Nc1ncc(C(F)(F)F)c(O[C@@H]2Cc3ccccc3[C@@H]2NC(C)=O)n1` [Example 72] showed an IC50 of 174 nM.
Compound `COc1cc(C(=O)NCCn2ccnc2C)c(Cl)cc1Nc1ncc(Cl)c(O[C@@H]2Cc3ccccc3[C@H]2N(C)S(C)(=O)=O)n1` [Example 35] has an IC50 of 2 nM.
Work on `COc1ccc(C(=O)NCCN(C)C)cc1Nc1ncc(C(F)(F)F)c(O[C@@H]2Cc3ccccc3[C@H]2N(C)S(C)(=O)=O)n1` [Example 81] yielded an IC50 of 0.31 nM.
`COc1ccc(C(=O)NN2CCN(C)CC2)cc1Nc1ncc(C(F)(F)F)c(O[C@@H]2Cc3ccccc3[C@H]2N(C)S(C)(=O)=O)n1` [Example 80] gave an IC50 of 0.41 nM.
`COc1cc(C(=O)NCC(O)CO)ccc1Nc1ncc(C(F)(F)F)c(O[C@@H]2Cc3ccccc3[C@H]2N(C)S(C)(=O)=O)n1` (stereo partly drawn) [Example 12] showed an IC50 of 4 nM.
For `COc1cc(C(=O)NC2CCN(C)CC2)c(F)cc1Nc1ncc(C(F)(F)F)c(O[C@@H]2CCCC[C@H]2NS(C)(=O)=O)n1` [Example 105], the IC50 was 0.39 nM.
With `COc1cc(C(=O)NC2CCN(C)CC2)ccc1Nc1ncc(C(F)(F)F)c(O[C@@H]2Cc3ccccc3[C@@H]2N(C)S(C)(=O)=O)n1` [Example 69] the IC50 was 42 nM.
In the case of `COc1cc(C(=O)NCCCN(C)C)c(Cl)cc1Nc1ncc(Cl)c(O[C@@H]2Cc3ccccc3[C@H]2N(C)S(C)(=O)=O)n1` [Example 41], the IC50 is reported as 2 nM.
For `COc1cc(C(=O)NC2CCN(C)CC2)c(Cl)cc1Nc1ncc(Cl)c(O[C@@H]2CCC[C@H]2N(C)S(C)(=O)=O)n1` [Example 84, 2-chloro-4-{5-chloro-4-[(1R,2R)-2-(methanesulphonyl-methyl-amino)-cyclopentyloxy]-pyrimidin-2-ylamino}-5-methoxy-N-(1-methyl-piperidin-4-yl)-benzamide], the IC50 was 0.32 nM.
For `COc1cc(C(=O)NC2CCN(C)CC2)ccc1Nc1ncc(C(F)(F)F)c(O[C@H]2Cc3ccccc3[C@@H]2N(C)S(C)(=O)=O)n1` [Example 32], the IC50 was 400 nM.
`COc1cc(C(=O)NN2CCN(C)CC2)c(Cl)cc1Nc1ncc(C(F)(F)F)c(O[C@@H]2CCC[C@H]2N(C)S(C)(=O)=O)n1` [Example 100, 2-chloro-4-{4-[(1R,2R)-2-(methanesulphonyl-methyl-amino)-cyclopentyloxy]-5-trifluoromethyl-pyrimidin-2-ylamino}-5-methoxy-N-(4-methyl-piperazin-1-yl)-benzamide] was tested, and the IC50 was 0.26 nM.
Work on `COc1cc(C(=O)N[C@H]2CC[C@H](N3CCN(CC4CC4)CC3)CC2)c(F)cc1Nc1ncc(Cl)c(O[C@@H]2Cc3ccccc3[C@H]2N(C)S(C)(=O)=O)n1` [Example 58] yielded an IC50 of 6 nM.
Compound `COc1cc(C(=O)NCCN(C)C)c(F)cc1Nc1ncc(C(F)(F)F)c(O[C@@H]2CCC[C@H]2NS(C)(=O)=O)n1` [Example 99] has an IC50 of 0.37 nM.
For `CONC(=O)c1cc(OC)c(Nc2ncc(C(F)(F)F)c(O[C@@H]3Cc4ccccc4[C@H]3N(C)S(C)(=O)=O)n2)cc1F` [Example 1], the IC50 was 6 nM.
In the case of `COc1cc(C(=O)NCC(C)(C)C)c(F)cc1Nc1ncc(C(F)(F)F)c(O[C@@H]2Cc3ccccc3[C@H]2N(C)S(C)(=O)=O)n1` [Example 3], the IC50 is reported as 3 nM.
Work on `COc1cc(C(=O)NC2CCN(C)CC2)c(Cl)cc1Nc1ncc(C(F)(F)F)c(O[C@@H]2CCC[C@H]2NS(=O)(=O)CCl)n1` [Example 47] yielded an IC50 of 3 nM.
Compound `COc1cc(C(=O)NCCN(C)C)c(F)cc1Nc1ncc(C(F)(F)F)c(O[C@@H]2CCCC[C@H]2NS(C)(=O)=O)n1` [Example 106] has an IC50 of 1 nM.
`COc1cc(C(=O)NC2CCN(C)CC2)c(F)cc1Nc1ncc(C(F)(F)F)c(O[C@@H]2CCCC[C@H]2N(C)S(C)(=O)=O)n1` [Example 75, 2-fluoro-4-{4-[(1R,2R)-2-(methanesulphonyl-methyl-amino)-cyclohexyloxy]-5-trifluoromethyl-pyrimidin-2-ylamino}-5-methoxy-N-(1-methyl-piperidin-4-yl)-benzamide] gave an IC50 of 0.31 nM.
For `COc1cc(C(=O)NC[C@@H](O)CO)c(F)cc1Nc1ncc(C(F)(F)F)c(O[C@@H]2Cc3ccccc3[C@H]2N(C)S(C)(=O)=O)n1` [Example 64], the IC50 was 6 nM.
In the case of `COc1cc(C(=O)NCCCN(C)C)ccc1Nc1ncc(C(F)(F)F)c(O[C@@H]2Cc3ccccc3[C@H]2N(C)S(C)(=O)=O)n1` [Example 20], the IC50 is reported as 3 nM.
In the case of `COc1cc(C(=O)NC[C@@H](O)CO)ccc1Nc1ncc(C(F)(F)F)c(O[C@@H]2Cc3ccccc3[C@H]2N(C)S(C)(=O)=O)n1` [Example 50], the IC50 is reported as 4 nM.
